Entries after “also recorded” stand apart in the source; their conditions may differ.
What was measured:
erythrocyte membrane = experiment: Inhibition of tert-butyl hydroperoxide-induced peroxidation of erythrocyte membrane (thiobarbituric acid); format: biochemical, human; details: for amount of lipid peroxide / formation of peroxide: human red ghost, tert-butyl hydroperoxide, 37° C., 30 minutes, 535 nm (FIG. 1)
Description: Human blood cells were subjected to hemolysis and red ghost (membrane segments containing hemoglobin) was collected by a centrifuging machine. […] The reaction product was quantitatively determined by colorimetry at 535 nm.

[1] = Oxidation of the reducing agent by tert-butyl hydroperoxide (absorption intensity); format: physicochemical; details: addition of tert-butyl hydroperoxide
liver = experiment: Reducing liver toxicity by organic halogen compounds (CCl4 :CHCl3); format: in vivo, mouse (female ddY strain); details: for TBA value (lipid peroxide) in liver: Day 1 after CCl4 :CHCl3, FIG. 4a; for calcium content in liver: over 3 days after CCl4 :CHCl3, FIG. 4b
Protocol: In liquid paraffin were dissolved 0.0025 ml of carbon tetrachloride (CCl4) and 0.0050 ml of chloroform (CHCl3) to form 0.1 ml of a solution. The solution was intraperitoneally administered to female ddY strain mice of 4 week age having a mean body weight of 25 g. With passage of day, concentration of lipid peroxide (TBA value, by thiobarbituric acid reaction), calcium concentration and a ratio of saturated fatty acids to unsaturated fatty acids (as an index of fatty liver), in liver were measured over 3 days. […] Ascorbic acid (AsA) and R-345 (4 mg each was dissolved in 0.1 ml of physiological saline, respectively) were intraperitoneally administered once a day every day from 6 hours after CCl4 :CHCl3 was administered to the day before the mice were sacrificed.

[2] = intraperitoneal administration to female ddY mice in this test; cited from earlier work
ddY strain mice [3] = experiment: Reducing toxicity of Adriamycin: survival days of mice; format: in vivo, mouse (female ddY strain); details: after Adriamycin; for prolongation of survival days: conclusion; for incidence of death versus control group: vitamin E 200 mg/kg i.p. 4 times or R-345 30 mg/kg i.p. 4 times
ddY strain mice [4] = experiment: Reducing radiation injury (X rays 800 roentgen): survival days of mice; format: in vivo, mouse (female ddY strain); details: for mice survived longer than 30 days / mice survived on Day 15 / average number of survival days: X rays 800 roentgen, FIG. 3; for mice survived longer than 30 days: 20 mice, R-345 285 mg/kg i.v. and/or vitamin E 200 mg/kg i.m.; for mice survived on Day 15: R-345 285 mg/kg i.v. 3 times and/or vitamin E 200 mg/kg i.m. 3 times; for average number of survival days: survival longer than 30 days counted as 30 days, control 8.7 days
Protocol: Female ddY strain mice of 4 week age having a mean body weight of 25 g were exposed to X rays of 800 roentgen to examine the number of survival days (dose of LD50 for 30 days was 407 to 466 roentgen).
R-345 (285 mg/kg) was intravenously administered through the tail immediately before exposure to radiation, and on Days 1 and 3 (3 times in total). […] With respect to a mouse survived longer than 30 days, the number of survival days was counted as 30 days to determine the average number of survival days.
Vitamin E (200 mg/kg) was intramuscularly administered 3 days and 1 day before exposure to radiation, and immediately before the exposure (3 times in total).

Stability in water = format: physicochemical
ddY strain mice [5] = experiment: Recovery from hyperglycemia in Alloxan-induced diabetes; format: in vivo, mouse (female ddY strain); details: one week after Alloxan 80 mg/kg i.v.; FIG. 5
Protocol: After Alloxan (80 mg/kg) was intravenously administered to female ddY strain mice of 4 week age showing a mean body weight of 25 g, 0.2 ml of vitamin E solution (dissolved in liquid paraffin in a concentration of 5%) was intramuscularly injected per mouse once a day from the next day and 0.2 ml of R-345 (dissolved in physiological saline in a concentration of 2 wt %) was intraperitoneally injected. In the control group, 0.2 ml of physiological saline was intraperitoneally injected per mouse. Blood sugar level was measured one week after administration of Alloxan.

| Compound | amount of lipid peroxide / formation of peroxide (erythrocyte membrane) | oxidation by tert-butyl hydroperoxide [1] | TBA value (lipid peroxide) in liver (liver) | calcium content in liver (liver) | prolongation of survival days (ddY strain mice [3]) | incidence of death versus control group (ddY strain mice [3]) | mice survived longer than 30 days (ddY strain mice [4]) | mice survived on Day 15 (ddY strain mice [4]) | average number of survival days (ddY strain mice [4]) | blood sugar level (ddY strain mice [5]) | other results |
| --- | --- | --- | --- | --- | --- | --- | --- | --- | --- | --- | --- |
| O=C1O[C@H]([C@@H](O)CO)C(O)=C1O [ascorbic acid] | increased | immediately oxidized | particularly high TBA value was noted in some cases | not lowered to normal level | – | – | – | – | – | – | reduction in absorption intensity at 265 nm [1]: markedly reduced; TBA value (lipid peroxide) in liver (liver; listed as AsA): some were higher than in the group administered with physiological saline (control group) |
| COc1cccc2c1C(=O)c1c(O)c3c(c(O)c1C2=O)C[C@@](O)(C(=O)CO)C[C@@H]3O[C@H]1C[C@H](N)[C@H](O)[C@H](C)O1 [Adriamycin] | – | – | – | – | – | – | – | – | – | – | LD50 [2]: 14 mg/kg |
| O=C1OC(CO)C(=O)C(O)=C1O (centres unmarked) [R-345, 2,3,6-trihydroxy-4-oxo-2-hexen-5-olide] | exhibited the activity of inhibiting the formation of peroxide | hardly oxidized | almost the same as in the control group | almost recovered to normal level | only a slight prolongation | a slight difference was observed | 2 mice | 3 out of 20 | 12.9 days | somewhat higher than normal level | mice survived longer than 50 days (ddY strain mice [3]; i.p., 10 mice, R-345 30 mg/kg and/or vitamin E 200 mg/kg, FIG. 2): 2 mice; mice died up to about Day 20 (ddY strain mice [3]; R-345 30 mg/kg i.p. 4 times, FIG. 2b): 8 out of 10; increase in average number of survival days compared with the control group (ddY strain mice [4]; R-345 285 mg/kg i.v. 3 times): slight increase; decomposition in water over a long period of time (Stability in water): tends to be decomposed some or less; activity of alleviating erythrocyte membrane disturbance induced by a peroxidant, versus ascorbic acid (erythrocyte membrane; conclusion): more effective than ascorbic acid; reduction in absorption intensity at 345 nm [1]: slight; increase in TBA value, calcium content and increase in neutral fat versus control group or vitamin E alone (liver; conclusion): reduced as compared to the control group or the group administered with vitamin E alone |
| vitamin E | exhibited the activity of inhibiting the formation of peroxide | – | – | not lowered to normal level | only a slight prolongation | almost the same incidence as noted with the control group | 2 mice | 2 out of 20 | 11.8 days | somewhat higher than normal level | mice survived longer than 31 days (ddY strain mice [3]; vitamin E 200 mg/kg i.p. 4 times, FIG. 2c): None; prevention of increase in TBA value (lipid peroxide level) (liver; CCl4 :CHCl3): effect of preventing increase in TBA value (lipid peroxide level) was noted; prevention of increase of calcium level (liver; CCl4 :CHCl3): not noted; prevention of increase in TBA value (lipid peroxide level) (liver; CCl4 :CHCl3, listed as VE): effective for preventing the increase in TBA value; also recorded: prevented an increase in TBA value; recovery of ratio of saturated fatty acid to unsaturated fatty acid in liver (liver; Day 2 after CCl4 :CHCl3, FIG. 4c): recovery would be slower than in the group administered with no VE; recovery to normal level of calcium content on Day 3 (liver; Day 3 after CCl4 :CHCl3, conclusion): a tendency to delay the recovery to normal level |

Reference: patent publication US5162366A, “Antioxidant composition in vivo comprising enol form δ-lactone of diketogulonic acid” (Nissan Chemical Industries, Ltd., priority 1990, dated 1992)
